Results: US5942405A, “Therapeutic and screening methods using C3a receptor and C3a” (priority 1997, dated 1999)

Legend:
C3a Receptor = molecular target: T1, C3a Receptor (Homo sapiens, UniProt Q16581); assay: Electrophysiological response (Ca2+ mediated chloride currents, two electrode voltage clamp) of Xenopus oocytes injected with C3a Receptor cRNA; type: cell-based; set-up: cDNA encoding a complete orphan GPCR of 482 amino acids; expressed in transfected cells; host or cells: Xenopus laevis oocytes microinjected with cRNA, with or without U937 total RNA; details: for electrophysiological response of oocytes expressing C3a Receptor: oocytes co-injected with C3a Receptor cRNA (10 ng) and U937 RNA (25 ng), ligands 10 nM
T1 sequence (Q16581 1-482 F151C): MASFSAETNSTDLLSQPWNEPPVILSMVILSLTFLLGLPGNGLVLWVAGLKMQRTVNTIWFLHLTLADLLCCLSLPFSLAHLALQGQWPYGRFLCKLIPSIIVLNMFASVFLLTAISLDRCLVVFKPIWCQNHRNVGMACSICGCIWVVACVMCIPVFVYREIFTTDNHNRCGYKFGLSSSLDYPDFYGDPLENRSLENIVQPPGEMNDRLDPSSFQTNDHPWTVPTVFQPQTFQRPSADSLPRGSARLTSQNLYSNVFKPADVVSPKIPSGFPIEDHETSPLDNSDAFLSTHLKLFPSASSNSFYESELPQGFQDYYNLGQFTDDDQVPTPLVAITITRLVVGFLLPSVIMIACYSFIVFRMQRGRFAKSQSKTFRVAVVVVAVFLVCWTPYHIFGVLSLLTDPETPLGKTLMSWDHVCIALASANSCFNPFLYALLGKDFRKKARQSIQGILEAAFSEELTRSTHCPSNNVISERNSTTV
Description: (A) Electrophysiological response of Xenopus oocytes injected with cRNA for C3a Receptor (10 ng), total U937 RNA (25 ng), or a mixture of C3a Receptor (10 ng) and U937 RNA (25 ng) to 10 nM rC5a, 10 nM C3a analogue peptide, 10 nM platelet activating factor (PAF), 10 nM fMetLeuPhe. Inset, represents typical response of oocytes co-injected with C3a Receptor cRNA+U937 RNA to 10 nM C3a. (B) Electrophysiological response of oocytes injected with C5a-R cRNA (10 ng), U937 RNA (25 ng) or a mixture of C5a-R and U937 RNA, to 10 nM rC5a or 10 nM C3a analogue peptide. […] Calcium mobilization by Fura 2 loaded cells expressing C5a receptor (FIGS. 4A & 4C) or C3a Receptor (FIGS. 4B & 4D) in response to rC5a (10 nM, FIG. 4A or 100 nM, FIG. 4B) or C3a analogue peptide (1 uM, FIGS. 4C & 4D).
Capped cRNA transcripts were generated from linearized C3a Receptor and C5a-R plasmid DNA as previously described (Kumar, C. S., et al (1989) J. Biol. Chem. 264, 17939-17946) and suspended in sterile water at a concentration of 0.2 μg/μl. Ovarian lobes were surgically removed from adult female Xenopus laevis frogs and defolliculated Stage V oocytes were harvested by manual dissection (Smith, L. D., et al (1991) Methods in Cell Biology, 36, 45-54. Edited by B. K. Kay and H. B. Peng, Academic Press Inc., New York.). Oocytes were microinjected with C3a Receptor or C5a-R cRNA transcripts (10 ng/oocyte) with or without U937 total RNA (25 ng/oocyte) in a 50 nl volume using a Drummond microinjection apparatus and maintained in modified Barth's saline (Power, C. A., et al (1995) J. Biol. Chem., 270,19495-19500 ) at 18° C. Electrophysiological recordings from an average of 10 oocytes were made 48 h later at room temperature using the two electrode voltage clamp (Warner Instruments) technique. Membrane potentials were routinely clamped at -60 mV. Results represent average response determined in three separate experiments.
The chemotactic receptors for C5a and the fMLP-R have previously been functionally expressed in Xenopus laevis oocytes (Kroll, B., et al (1991) FEBS Lett. 291, 208-210; Murphy, P. M. & McDermott, D. (1991) J Biol. Chem. 266, 12560-12567; Murphy, P. M., Gallin, E. K., and Tiffany, H. L. (1990) J Immunol. 145, 2227-2234; Schultz, P., et al (1992) Cellular Signalling 4, 153-161) and, unlike all other GPCRs tested in this system, injection of cRNA for the cloned chemotactic receptors alone is insufficient to stimulate signal transduction in response to ligand binding (Kroll, B., et al (1991) FEBS Lett. 291, 208-210; Murphy, P. M. & McDermott, D. (1991) J Biol. Chem. 266, 12560-12567). Functional expression of both of these chemotactic receptors, as monitored by induction of Ca^2+ mediated chloride currents, requires the co-injection of a complimentary human factor which can be supplied by total RNA from myeloid or liver cells (Kroll, B., et al (1991) FEBS Lett. 291, 208-210; Murphy, P. M. & McDermott, D. (1991) J Biol. Chem. 266, 12560-12567). The co-factor is required for receptor-mediated signal transduction but not for expression of the C5a-R or fMLF-R on the surface of the oocytes (Murphy, P. M., et al (1990) J Immunol. 145, 2227-2234). […] Xenopus oocytes were used to functionally characterize C3a Receptor. […] Like the C5a-R and the fMLF-R, the response was dependent on the co-injection of a cofactor present in total HL-60 or U937 RNA. […] (FIG. 3B). Both the C5a-R as well as C3a Receptor elicited in oocytes a promiscuous response to the two anaphylatoxins.

C3a-R = details: cited from earlier work
guinea pig ileal tissue = details: C3a and C4a; cited from earlier work

## CSCC[C@H](NC=O)C(=O)N[C@@H](CC(C)C)C(=O)N[C@@H](Cc1ccccc1)C(=O)O [fMLF, fMetLeuPhe]
C3a Receptor
  electrophysiological response of oocytes expressing C3a Receptor: not

## CCCCCCCCCCCCCCCCOCC(COP(=O)([O-])OCC[N+](C)(C)C)OC(C)=O (centres unmarked) [platelet activating factor]
C3a Receptor
  electrophysiological response of oocytes expressing C3a Receptor: not

## pertussis toxin
C3a-R
  sensitivity of functional activity of the C3a-R to pertussis toxin: sensitive
C3a Receptor; response to C3a peptide, data not shown
  effect on response to the C3a peptide of oocytes co-injected with C3a Receptor and U937 RNA: abolished

B1: C4a: 74-77 amino acid anaphylatoxins C3a, C4a and C5a (protein, UniProt P0C0L4 680-756, looked up)
C4a anaphylatoxin: NVNFQKAINEKLGQYASPTAKRCCQDGVTRLPMMRSCEQRAARVQQPDCREPFLSCCQFAESLRKKSRDKGQAGLQR
modifications: C4a anaphylatoxin
notes: 74-77 amino acid anaphylatoxins C3a, C4a and C5a
Guinea pig ileal tissue
  cross desensitization of guinea pig ileal tissue: cross desensitize
